Legend:
Format in all cases: cell-based
[1] = test system: MM cell lines OPM.2-P10, H929-1051, KMS12BM PR, L363, JJN3; assay: 7 day combination assay (Annexin V/7-AAD flow cytometry, fractional product method), MM cell line panel; conditions: panel of 5 MM cell lines, 7 day assay, 3 days priming with second agent
Protocol: Five MM cell lines with acquired or inherent resistance to lenalidomide or pomalidomide were included in the studies (OPM.2-P10, H929-1051, KM[…] PR, L363, and JJN3). […] The assay was performed in a 96-well plate. All MM cell lines were cultured in an incubator at 37° C. with 5% CO2 using the indicated cell culture media containing 1×Penicillin-Streptomycin. The MM cells were primed for 3 days with these second agents at the single agent IC50 value. […] Compound 2 was added to the cells at a dose range of 30 μM-0.00018 μM, depending on the cell line, for a 8 point dose response curve. The cells were incubated at 37° C. for an additional 4 days. At the end of the 7 day treatment, the MM cells were stained with Annexin V and 7-AAD and analyzed on a flow cytometer. Live MM cells were identified as Annexin V and 7-AAD double negative cells. In these experiments, synergy calculations were performed using the fractional product method (Webb, 1963).

[2] = test system: AMO1 (parental) cell line; assay: Cell proliferation, combination with Compound 2, combination index (Calcusyn), AMO1; conditions: AMO1, 3 days
Protocol: (§1) AMO1 (parental) and AMO1-PR (pomalidomide resistant) cell lines were treated with various doses of Compound 2 in combination with increasing doses of an MEK inhibitor trametinib for 3 days. Cell proliferation was analyzed using thymidine incorporation assays. Combination index values were calculated by Calcusyn and values below 10^0 represented the synergy between the combination treatments. The results are shown in FIG. 4A (AMO1), FIG. 4B (AMO1 combination index), FIG. 4C (AMO1-PR), and FIG. 4D (AMO1-PR combination index), respectively.
(§2) AMO1 and AMO1-PR (pomalidomide resistant) cell lines were treated with increasing doses of Compound 2 in combination with a PLK1 inhibitor (BI2536). Changes in cell proliferation were studied in response to monotherapy and combinations at Day 3 post treatment. Combination Index was calculated using Calcusyn based method. Combination index values were calculated by Calcusyn and values below 10^0 represented the synergy between the combination treatments. PLK1 is one of the key target gene of MDMS8 (molecularly defined myeloma segment 8), a high risk cluster identified from myeloma genome project. The results are shown in FIG. 6A (AMO1), FIG. 6B (AMO1 combination index), FIG. 6C (AMO1-PR), and FIG. 6D (AMO1-PR combination index), respectively. Inhibition of MDMS8 target gene PLK1 with Compound 2 is synergistic in AMO1 and AMO1-PR cells.
(§3) AMO1 and AMO1-PR (pomalidomide resistant) cell lines were treated with increasing doses of Compound 2 in combination with an NEK2 inhibitor (JH295). Changes in cell proliferation were studied in response to monotherapy and combinations at Day 3 post treatment. Combination index values were calculated by Calcusyn and values below 10^0 represented the synergy between the combination treatments. NEK2 is one of the key target gene of MDMS8 (molecularly defined myeloma segment 8), a high risk cluster identified from myeloma genome project. The results are shown in FIG. 7A (AMO1 combination index) and FIG. 7B (AMO1-PR combination index), respectively. Inhibition of MDMS8 target gene NEK2 with Compound 2 is synergistic in AMO1 and AMO1-PR cells.
(§4) AMO1, AMO1-PR (pomalidomide resistant), K12PE and K12PE-PR (pomalidomide resistant) cell lines were treated with increasing doses of Compound 2 in combination with an AURKB inhibitor (AZD 1152). […] Combination index values were calculated by Calcusyn and values below […] represented the synergy between the combination treatments. […]
(§5) AMO1, AMO1-PR (pomalidomide resistant) cell lines were treated with increasing doses of Compound 2 in combination with a BIRC5 inhibitor (YM155). […] Combination index values were calculated by Calcusyn and values below 10^0 represented the synergy between the combination treatments. […]

[3] = test system: AMO1-PR (pomalidomide resistant) cell line; assay: Cell proliferation, combination with Compound 2, combination index (Calcusyn), AMO1-PR; conditions: 3 days
Protocol: as §1, §2, §3, §4, §5

[4] = test system: panel of MM cell lines (H929-1051, KMS11, KMS-12PE, L363, OPM-P10, RPMI8226); assay: Compound 2 combination with small molecule inhibitors, 3 day Cell Titer-Glo, Highest Single Agent synergy; conditions: six MM cell lines, 3 days, Highest Single Agent method
Protocol: The combination experiments were run twice, each time with replicate data on separate plates. Compounds were pre-spotted into the appropriate wells of 384-well plates using an acoustic dispenser. All MM cell lines were cultured in an incubator at 37° C. with 5% CO2 using the indicated cell culture media containing 1× Penicillin-Streptomycin. Cells were added to the compound containing 384-well plates using a Multidrop Combi Reagent Dispenser and allowed to incubate for 3 days at 37° C. with 5% CO2. After 3 days, cells were assessed for their level of ATP content via Cell Titer-Glo measured on a luminescence detector (PerkinElmer Envision).
The Highest Single Agent (HAS) method was used to detect synergy in the dose response curve data. Combinations were analyzed from a response surface perspective.

Row | SMILES | synergy in combination with Compound 2 [1] | synergy with Compound 2 (combination index) [2] | synergy with Compound 2 (combination index) [3] | synergy in combination with Compound 2 [4]
1 | Nc1ncn([C@@H]2O[C@H](CO)[C@@H](O)[C@H]2O)c(=O)n1 [azacitidine, 4-amino-1-β-D-ribofuranosyl-1,3,5-triazin-2(1H)-one] | synergy in 4 of the cell lines tested |  |  | 
2 | COc1cc(C)[nH]c(=O)c1CNC(=O)c1c(C)n([C@H](C)C2CCN(CC(F)(F)F)CC2)c2ccccc12 [CPI-1205, (R)—N-((4-methoxy-6-methyl-2-oxo-1,2-dihydropyridin-3-yl)methyl)-2-methyl-1-(1-(1-(2,2,2-trifluoroethyl)piperidin-4-yl)ethyl)-1H-indole-3-carboxamide] | synergistic in all 5 cell lines tested |  |  | 
3 | CC(C)N(C[C@H]1O[C@@H](n2cnc3c(N)ncnc32)[C@H](O)[C@@H]1O)C1CC(CCc2nc3cc(C(C)(C)C)ccc3[nH]2)C1 (stereo partly drawn) [pinometostat, (2R,3R,4S,5R)-2-(6-amino-9H-purin-9-yl)-5-((((1r,3S)-3-(2-(5-(tert-butyl)-1H-benzo[d]imidazol-2-yl)ethyl)cyclobutyl)(isopropyl)amino)methyl)tetrahydrofuran-3,4-diol] | Synergy was also evident |  |  | 
4 | CC[C@@H]1C(=O)N(C)c2cnc(Nc3ccc(C(=O)NC4CCN(C)CC4)cc3OC)nc2N1C1CCCC1 [BI2536, (R)-4-((8-cyclopentyl-7-ethyl-5-methyl-6-oxo-5,6,7,8-tetrahydropteridin-2-yl)amino)-3-methoxy-N-(1-methylpiperidin-4-yl)benzamide] |  | synergistic | synergistic | 
5 | C#CC(=O)Nc1ccc2c(c1)/C(=C/c1[nH]c(CC)nc1C)C(=O)N2 [JH295, (Z)—N-(3-((2-ethyl-4-methyl-1H-imidazol-5-yl)methylene)-2-oxoindolin-5-yl)propiolamide] |  | synergistic | synergistic | 
6 | COCCn1c2c([n+](Cc3cnccn3)c1C)C(=O)c1ccccc1C2=O.[Br-] [YM155, 1-(2-methoxyethyl)-2-methyl-4,9-dioxo-3-(pyrazin-2-ylmethyl)-4,9-dihydro-1H-naphtho[2,3-d]imidazol-3-ium bromide] |  | synergistic | synergistic | 
7 | CCN(c1cc(-c2ccc(CN3CCOCC3)cc2)cc(C(=O)NCc2c(C)cc(C)[nH]c2=O)c1C)C1CCOCC1 [tazemetostat, N-[(1,2-dihydro-4,6-dimethyl-2-oxo-3-pyridinyl)methyl]-5-[ethyl(tetrahydro-2H-pyran-4-yl)amino]-4-methyl-4′-(4-morpholinylmethyl)-[1,1′-biphenyl]-3-carboxamide] | synergistic in all 5 cell lines tested |  |  | synergy in one, two, or three out of the six cell lines tested

— US12186311B2, “Antiproliferative compounds and second active agents for combined use” (Celgene Corporation, priority 2019, dated 2025)
